Data published in patent US4605615A, “L-glutamic acid oxidase (H2 O2 -generating), its production and analytical method therefor” (priority 1982, dated 1986).

Columns and labels:
A8063 enzyme [1] = test: Substrate specificity: relative activity on various substrates; assay type: biochemical, Streptomyces sp. A8063
Description: (§1) The above mixture (3.0 ml) was introduced into a quartz cell at 37° C., to which was immediately added and mixed the enzyme solution (50 μl), in a constant temperature (37° C.) cell-holder of a spectrophotometer. Then the mixture was incubated for exactly 5 minutes after 2 minutes of mixing with the enzyme solution, and the variation of absorption (optical density ΔA545) at 545 nm is measured.
(§2) The activity of the enzyme is calculated by the following equation: [formula] 2. Substrate specificity:
(§3) The relative activities (%) of enzyme L-glutamic acid oxidases produced by Streptomyces sp. A7700 (hereinafter designated as A7700 enzyme) and by Streptomyces sp. A8063 (hereinafter designated as A8063 enzyme), respectively, on various substrates as compared with L-glutamic acid, are measured.

A7700 enzyme [2] = test: as above; assay type: biochemical, Streptomyces sp. A7700
Description: as §1, §2, §3

A7700 enzyme [3] = test: Effect of metal ions on enzyme activity; assay type: biochemical, Streptomyces sp. A7700; conditions: metalic salt 1.0 mM
Description: as §1, §2
(§4) The effect of metal ions is shown in Table 5, in which ions other than Cu^++ show no effect on the enzymes.

A8063 enzyme [4] = test: Effect of metal ions on enzyme activity; assay type: biochemical, Streptomyces sp. A8063; conditions: metalic salt 1.0 mM
Description: as §1, §2, §4

A7700 enzyme [5] = test: Effect of surface active agents and other substances on enzyme activity; assay type: biochemical, Streptomyces sp. A7700; conditions: for Relative activity (%): A7700
Description: as §1
(§5) The activity of the enzyme is calculated by the following equation: [formula] 2.

A8063 enzyme [6] = test: as above; assay type: biochemical, Streptomyces sp. A8063; conditions: for Relative activity (%): A8063
Description: as §1, §5

SMILES | Relative activity (%) on substrate as compared with L-glutamic acid (A8063 enzyme [1]) | Relative activity (%) on substrate as compared with L-glutamic acid (A7700 enzyme [2]) | other results
N[C@@H](CO)C(=O)O [L-serine] | 0% | 0% | –
C[C@@H](O)[C@H](N)C(=O)O [L-threonine] | 0% | 0% | –
N[C@@H](Cc1ccc(O)cc1)C(=O)O [L-tyrosine] | 0% | 0% | –
CC(C)[C@H](N)C(=O)O [L-valine] | 0% | 0% | –
[Cl-].[Cl-].[Mg+2] [MgCl2] | – | – | Relative activity (%) (A7700 enzyme [3]): 102.5%; Relative activity (%) (A8063 enzyme [4]): 103.4%
[Cl][Mn][Cl] [MnCl2] | – | – | Relative activity (%) (A7700 enzyme [3]): 108.6%; Relative activity (%) (A8063 enzyme [4]): 105.7%
[N-]=[N+]=[N-].[Na+] [NaN3] | – | – | Relative activity (%) (A7700 enzyme [5]; additive 10 mM): 101.4%; Effect of additive on enzyme activity (in words) (A7700 enzyme [5]; A7700 enzyme): not inhibited; Relative activity (%) (A8063 enzyme [6]; additive 10 mM): 102.6%; Effect of additive on enzyme activity (in words) (A8063 enzyme [6]; A8063 enzyme): not inhibited
[Cl][Ni][Cl] [NiCl2] | – | – | Relative activity (%) (A7700 enzyme [3]): 101.8%; Relative activity (%) (A8063 enzyme [4]): 102.3%
O=C(O)c1cc[c]([Hg][Cl])cc1 [PCMB] | – | – | Relative activity (%) (A7700 enzyme [5]; additive 0.002%): 107.6%; Relative activity (%) (A8063 enzyme [6]; additive 0.002%): 98.2%
CCCCCCCCCCCCOS(=O)(=O)O [SDS] | – | – | Relative activity (%) (A7700 enzyme [5]; additive 0.1%): 106.3%; Relative activity (%) (A8063 enzyme [6]; additive 0.1%): 93.1%
[Cl-].[Cl-].[Zn+2] [ZnCl2] | – | – | Relative activity (%) (A7700 enzyme [3]): 106.1%; Relative activity (%) (A8063 enzyme [4]): 110.7%
NCc1ccccc1 [benzylamine] | 0% | 0% | –
CCCCN [butylamine] | 0% | 0% | –
CCN [ethylamine] | 0% | 0% | –
NO [hydroxylamine] | 0% | 0% | –
CN [methylamine] | 0% | 0% | –
CCCN [propylamine] | 0% | 0% | –
C[C@H](CCC(=O)O)[C@H]1CC[C@H]2[C@@H]3[C@H](O)C[C@@H]4C[C@H](O)CC[C@]4(C)[C@H]3C[C@H](O)[C@]12C [sodium cholate] | – | – | Relative activity (%) (A7700 enzyme [5]; additive 0.1%): 104.2%; Relative activity (%) (A8063 enzyme [6]; additive 0.1%): 100.0%
NCCc1ccc(O)cc1 [tyramine] | 0% | 0% | –
